Test results reported in patent US6444617B1, “Fused-heterocycle dicarboxylic acid diamide derivatives or salts thereof, herbicide and usage thereof” (Nihon Nohyaku Co., Ltd., priority 1998, dated 2002).

Columns and labels:
Format in all cases: in vivo
wheat (Wh) = assay: Test Example 3: phytotoxicity to upland crop plants, treatment before emergence; details: dosage 5 kg/ha
In short: (§1)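 Pre-emergence spray, test compound at prescribed conc. in liquid formulation; crop injury (soybean, wheat) read at day 14, scored by criterion.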

soybean plant (So) = assay: as above; details: dosage 5 kg/ha
In short: as §1

soybean plant = assay: Test Example 4: phytotoxicity to upland crop plants, treatment after emergence; details: dosage 5 kg/ha, sprayed after emergence, judged 14 days after treatment
In short: (§2)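 Seeds sown in soil and covered. Plants raised to specified leaf stages. Agent with test compound at a prescribed concentration sprayed. Herbicidal effect and crop damage scored after 14 days as weed-killing rate.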

wheat = assay: as above; details: dosage 5 kg/ha, sprayed after emergence, judged 14 days after treatment
In short: as §2

[1] = test system: forxtail grass (Alopecurus aequalis var. amurensis Ohwi), Am; assay: Test Example 3: herbicidal effect on upland weeds before emergence; details: foxtail grass, dosage 5 kg/ha
In short: (§3)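 Test compound, formulated as a liquid at a fixed concentration, is sprayed before weed emergence. Two weeks later, kill rate is derived and herbicidal activity is rated.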

[2] = test system: cleavers (Galium aparine L.), Ga; assay: as above; details: dosage 5 kg/ha
In short: as §3

[3] = test system: barnyard grass (Echinochloa crus-galli Beauv.), Ec; assay: as above; details: dosage 5 kg/ha
In short: as §3

[4] = test system: velvetleaf (Abutilon theophtasti L.), At; assay: as above; details: dosage 5 kg/ha
In short: as §3

[5] = test system: cocklebur (Xanthium strumarium L.), Xs; assay: as above; details: dosage 5 kg/ha
In short: as §3

[6] = test system: bird's eye speedwell (Veronica persica Poir.), Vp; assay: as above; details: dosage 5 kg/ha
In short: as §3

[7] = test system: barnyard grass (Echinochloa crus-galli Beauv.); assay: Test Example 1: herbicidal effect on paddy field weeds before emergence; details: Dosage 5 kg/ha
In short: (§4)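 Seeds of both weeds, still ungerminated, in soil pots held under paddy conditions received a set dose of test solution as soil treatment. After twenty-one days, control relative to untreated pots was calculated and rated on a scoring scale.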

[8] = test system: bulrush (Scirpus juncoides Roxb.); assay: as above; details: Dosage 5 kg/ha
In short: as §4

[9] = test system: forxtail grass (Alopecurus aequalis var. amurensis Ohwi), Am; assay: Test Example 4: herbicidal effect on upland weeds after emergence; details: dosage 5 kg/ha; sprayed after emergence; judged 14 days after treatment
In short: (§5)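 Post-emergence foliar spray, compound at prescribed concentration, applied at defined leaf stages; weeds plus soybean/wheat grown in soil vats. Read-out: weed-killing rate and crop injury, 14 d post-treatment.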

[10] = test system: cleavers (Galium aparine L.), Ga; assay: as above; details: dosage 5 kg/ha; sprayed after emergence; judged 14 days after treatment
In short: as §5

[11] = test system: barnyard grass (Echinochloa crus-galli Beauv.), Ec; assay: as above; details: dosage 5 kg/ha; sprayed after emergence; judged 14 days after treatment
In short: as §5

[12] = test system: velvetleaf (Abutilon theophtasti L.), At; assay: as above; details: dosage 5 kg/ha; sprayed after emergence; judged 14 days after treatment
In short: as §5

[13] = test system: cocklebur (Xanthium strumarium L.), Xs; assay: as above; details: dosage 5 kg/ha; sprayed after emergence; judged 14 days after treatment
In short: as §5

[14] = test system: bird's eye speedwell (Veronica persica Poir.), Vp; assay: as above; details: dosage 5 kg/ha; sprayed after emergence; judged 14 days after treatment
In short: as §5

[15] = test system: monochoria (Monochoria vaginalis Presl); assay: Test Example 2: herbicidal effect on paddy field weeds after emergence; details: Dosage 5 kg/ha; one-leaved stage; 21 days after treatment
In short: (§6)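 Weeds were sown in 1/10000 are pots of soil flooded to paddy conditions and grown to the one-leaf stage, then the soil was treated with a solution of compound at a predetermined dosage.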

[16] = test system: barnyard grass (Echinochloa crus-galli Beauv.); assay: as above; details: Dosage 5 kg/ha; one-leaved stage; 21 days after treatment
In short: as §6

[17] = test system: bulrush (Scirpus juncoides Roxb.); assay: as above; details: Dosage 5 kg/ha; one-leaved stage; 21 days after treatment
In short: as §6

| Structure (SMILES) | Phytotoxicity Wh (wheat (Wh)) | Phytotoxicity So (soybean plant (So)) | Phytotoxicity So (soybean plant) | Phytotoxicity Wh (wheat) | Herbicidal effect Am [1] | Herbicidal effect Ga [2] | Herbicidal effect Ec [3] | Herbicidal effect At [4] | Herbicidal effect Xs [5] | Herbicidal effect Vp [6] | Pre-emergence treatment Barnyard grass (herbicidal effect) [7] | Pre-emergence treatment Bulrush (herbicidal effect) [8] | Herbicidal effect Am [9] | Herbicidal effect Ga [10] | Herbicidal effect Ec [11] | Herbicidal effect At [12] | Herbicidal effect Xs [13] | Herbicidal effect Vp [14] | Post-emergence treatment Monochoria (herbicidal effect) [15] | Post-emergence treatment Barnyard grass (herbicidal effect) [16] | further results |
| --- | --- | --- | --- | --- | --- | --- | --- | --- | --- | --- | --- | --- | --- | --- | --- | --- | --- | --- | --- | --- | --- |
| CCCNC(=O)c1nc2cscc2cc1C(=O)Nc1c(CC)ccc(Cl)c1CC [compound 836] | 5 (Crop-killing rate is 100%.) | 4 (Crop-killing rate is 90-99%.) | 4 (Crop-killing rate is 90-99%.) | 5 (Crop-killing rate is 100%.) | 5 (Weed-killing rate is 100%.) | 5 (Weed-killing rate is 100%.) | 5 (Weed-killing rate is 100%.) | 5 (Weed-killing rate is 100%.) | 5 (Weed-killing rate is 100%.) | 5 (Weed-killing rate is 100%.) | 5 (Weed-killing rate is 100%.) | 5 (Weed-killing rate is 100%.) | 5 (Weed-killing rate is 100%.) | 5 (Weed-killing rate is 100%.) | 5 (Weed-killing rate is 100%.) | 5 (Weed-killing rate is 100%.) | 5 (Weed-killing rate is 100%.) | 5 (Weed-killing rate is 100%.) | 5 (Weed-killing rate is 100%.) | 5 (Weed-killing rate is 100%.) | Post-emergence treatment Bulrush (herbicidal effect) [17]: 5 (Weed-killing rate is 100%.) |
| CCCNC(=O)c1nc2ccoc2cc1C(=O)Nc1c(CC)ccc(Cl)c1CC [compound 847] | 5 (Crop-killing rate is 100%.) | 4 (Crop-killing rate is 90-99%.) | 4 (Crop-killing rate is 90-99%.) | 5 (Crop-killing rate is 100%.) | 5 (Weed-killing rate is 100%.) | 5 (Weed-killing rate is 100%.) | 5 (Weed-killing rate is 100%.) | 5 (Weed-killing rate is 100%.) | 5 (Weed-killing rate is 100%.) | 5 (Weed-killing rate is 100%.) | 5 (Weed-killing rate is 100%.) | 5 (Weed-killing rate is 100%.) | 5 (Weed-killing rate is 100%.) | 5 (Weed-killing rate is 100%.) | 5 (Weed-killing rate is 100%.) | 5 (Weed-killing rate is 100%.) | 5 (Weed-killing rate is 100%.) | 5 (Weed-killing rate is 100%.) | 5 (Weed-killing rate is 100%.) | 5 (Weed-killing rate is 100%.) | Post-emergence treatment Bulrush (herbicidal effect) [17]: 5 (Weed-killing rate is 100%.) |
| CCNC(=O)c1nc2ccsc2cc1C(=O)Nc1c(CC)ccc(Cl)c1CC [compound 870] | 4 (Crop-killing rate is 90-99%.) | 3 (Crop-killing rate is 70-89%.) | 3 (Crop-killing rate is 70-89%.) | 4 (Crop-killing rate is 90-99%.) | 5 (Weed-killing rate is 100%.) | 5 (Weed-killing rate is 100%.) | 5 (Weed-killing rate is 100%.) | 5 (Weed-killing rate is 100%.) | 5 (Weed-killing rate is 100%.) | 5 (Weed-killing rate is 100%.) | 5 (Weed-killing rate is 100%.) | 5 (Weed-killing rate is 100%.) | 5 (Weed-killing rate is 100%.) | 5 (Weed-killing rate is 100%.) | 5 (Weed-killing rate is 100%.) | 5 (Weed-killing rate is 100%.) | 5 (Weed-killing rate is 100%.) | 5 (Weed-killing rate is 100%.) | 5 (Weed-killing rate is 100%.) | 5 (Weed-killing rate is 100%.) | Post-emergence treatment Bulrush (herbicidal effect) [17]: 5 (Weed-killing rate is 100%.) |
| CCCNC(=O)c1nc2ccsc2cc1C(=O)Nc1c(CC)ccc(Cl)c1CC [compound 871] | 5 (Crop-killing rate is 100%.) | 4 (Crop-killing rate is 90-99%.) | 4 (Crop-killing rate is 90-99%.) | 5 (Crop-killing rate is 100%.) | 5 (Weed-killing rate is 100%.) | 5 (Weed-killing rate is 100%.) | 5 (Weed-killing rate is 100%.) | 5 (Weed-killing rate is 100%.) | 5 (Weed-killing rate is 100%.) | 5 (Weed-killing rate is 100%.) | 5 (Weed-killing rate is 100%.) | 5 (Weed-killing rate is 100%.) | 5 (Weed-killing rate is 100%.) | 5 (Weed-killing rate is 100%.) | 5 (Weed-killing rate is 100%.) | 5 (Weed-killing rate is 100%.) | 5 (Weed-killing rate is 100%.) | 5 (Weed-killing rate is 100%.) | 5 (Weed-killing rate is 100%.) | 5 (Weed-killing rate is 100%.) | Post-emergence treatment Bulrush (herbicidal effect) [17]: 5 (Weed-killing rate is 100%.) |
| Cc1c(Cl)cccc1NC(=O)c1cc2sccc2nc1C(=O)NC1CCCC1 [compound 892] | 4 (Crop-killing rate is 90-99%.) | 3 (Crop-killing rate is 70-89%.) | 3 (Crop-killing rate is 70-89%.) | 4 (Crop-killing rate is 90-99%.) | 5 (Weed-killing rate is 100%.) | 5 (Weed-killing rate is 100%.) | 5 (Weed-killing rate is 100%.) | 5 (Weed-killing rate is 100%.) | 4 (Weed-killing rate is 90-99%.) | 5 (Weed-killing rate is 100%.) | 5 (Weed-killing rate is 100%.) | 5 (Weed-killing rate is 100%.) | 5 (Weed-killing rate is 100%.) | 4 (Weed-killing rate is 90-99%.) | 5 (Weed-killing rate is 100%.) | 5 (Weed-killing rate is 100%.) | 4 (Weed-killing rate is 90-99%.) | 5 (Weed-killing rate is 100%.) | 5 (Weed-killing rate is 100%.) | 5 (Weed-killing rate is 100%.) | Post-emergence treatment Bulrush (herbicidal effect) [17]: 5 (Weed-killing rate is 100%.) |
